Measurements taken from EP1032364B1, “TOPICAL COMPOSITIONS CONTAINING SIALYL SUGARS AND THEIR DERIVATIVES” (E-L Management Corp., priority 1998, dated 2000).
“And” between values parts separate entries of the source, which are not always exact repeats. Equal entries are not always repeated.

Legend:
[1] = tested on: volunteers with a history of skin sensitivity to Balsam of Peru; assay: in vivo skin anti-irritancy test, Balsam of Peru challenge, redness by Minolta chromameter (Example 2); conditions: for % Decrease In Redness: 20 min before Balsam of Peru, 7 volunteers; for preventing irritation caused by a topical irritant (in words): Balsam of Peru challenge, 0.1%
Excerpt: The following in vivo assay illustrates the effectiveness of sialyl oligosaccharide derivatives, 3'- and 6'-sialyl lactose, in preventing skin irritation. The in vivo assays used to assess efficacy of topical anti-irritants are known to those skilled in the art, examples of such assays may be found in Muizzuddin et al., 1990, J. Soc. Cosmet. Chem. 41:369-378, and Lubach et al. in Topical Corticoids, Maibach & Surber (eds.) Basel, Karger, 1992, pp. 26-41, both of which are incorporated herein by reference in their entirety. The skin anti-irritancy effects of 3'- and 6'- sialyl lactose were tested on 7 volunteers with a history of skin sensitivity to Balsam of Peru. The test compounds were applied to the ventral forearms of the panelists. The material was allowed to absorb for twenty minutes and then Balsam of Peru, an irritant, was applied to the test sites. Skin irritation was measured in terms of increase in skin redness.
The degree of redness was measured with the Minolta chromameter and compared with the positive and negative controls. The positive control was the color of skin treated with Balsam of Peru alone and the negative control was the skin treated with cola material challenged like the test material.

[2] = tested on: PMN-endothelial cells; assay: in vitro inhibition of adhesion of activated neutrophils to endothelial cells; format: cell-based; conditions: for % Inhibition of Adhesion: neutrophils activated with interleukin-1 or TPA
Experimental: The following in vitro assay illustrates the effectiveness of the sialyl oligosaccharide derivative, 3' sialyl lactose, in inhibiting the adhesion of cells that express SLeX on their surfaces to cells expressing a selectin receptor. The ability of 3'-sialyl lactose to inhibit cell adhesion was tested using an in vitro assay system. Neutrophils were activated with either interleukin-1 or phorbol ester, TPA, to induce expression of selections and binding to endothelial cells. The activated neutrophils were treated with either 3'-sialyl lactose at 0.01 and 0.02%, sucrose at 4% or a positive control, and then assayed for their ability to bind to PMN-endothelial cells.

[3] = tested on: volunteers with a history of skin sensitivity to Balsam of Peru; assay: in vivo skin anti-irritancy test, Balsam of Peru challenge, redness by Minolta chromameter (Example 3); conditions: 0.1% topical on ventral forearm, 20 min before Balsam of Peru, 7 volunteers
Experimental: The following in vivo assay illustrates the effectiveness of 3'-sialyl oligosaccharide derivatives in preventing skin irritation. The skin anti-irritancy effects of various derivatives of 3'-sialyl lactose were tested on 7 volunteers with a history of skin sensitivity to Balsam of Peru. The test compounds benzyl sialyl lactose and ethyl sialyl lactose were applied to the ventral forearms of the panelists. The material was allowed to absorb for twenty minutes and then Balsam of Peru, an irritant, was applied on the test sites. Skin irritation was measured in terms of increase in skin redness. The degree of redness was measured with the Minolta chromameter and compared with the positive and negative controls. The positive control was the color of skin treated with Balsam of Peru alone and the negative control was the skin treated with cola material challenged like the test material.

[4] = 0.1% topical on ventral forearm

## C[C@]12CCC(=O)C=C1CC[C@@H]1[C@@H]2[C@@H](O)C[C@@]2(C)[C@H]1CC[C@]2(O)C(=O)CO [Hydrocortisone, reference compound]
[1]; 0.5% topical on ventral forearm
  % Decrease In Redness: 66%

## CC(=O)N[C@H]1[C@H]([C@H](O)[C@H](O)CO)O[C@@](O[C@H]2[C@@H](O)[C@@H](CO)O[C@@H](O[C@H]3[C@H](O)[C@@H](O)C(O)O[C@@H]3CO)[C@@H]2O)(C(=O)O)C[C@@H]1O (some centres unmarked) [3'-Sialyl lactose, 3'-N acetylneuraminyl-lactose]
[2]; 0.02%, IL-1 induced neutrophils
  inhibiting the adhesion of cells that express SLeX to cells expressing a selectin receptor (in words): very effective
[2]; test compound at 0.01%
  % Inhibition of Adhesion: 39%
[2]; test compound at 0.02%
  % Inhibition of Adhesion: 61%
[1]; [4]
  % Decrease In Redness: 69% and 67%
[1]
  preventing irritation caused by a topical irritant (in words): significant activity

## CC(=O)N[C@H]1[C@H]([C@H](O)[C@H](O)CO)O[C@@](O[C@H]2[C@@H](O)[C@@H](CO)O[C@@H](O[C@H]3[C@H](O[C@@H]4O[C@@H](C)[C@@H](O)[C@@H](O)[C@@H]4O)[C@@H](NC(C)=O)C(O)O[C@@H]3CO)[C@@H]2O)(C(=O)O)C[C@@H]1O (some centres unmarked) [Sialyl Lewis X, NeuAcα2-3βGalβ1-4(Fucα1-3)GlcNAc, reference compound]
[1]; [4]
  % Decrease In Redness: 66%

## CC(=O)N[C@H]1[C@H]([C@H](O)[C@H](O)CO)OC(O)(C(=O)O)C[C@@H]1O (some centres unmarked) [Sialic Acid, reference compound]
[1]; [4]
  % Decrease In Redness: 31%

## benzyl sialyl lactose
[3]
  % Decrease In Redness: 42.47%
[3]; listed as benzyl sialyl lactose
  % Decrease In Redness: 42.47%

## OC[C@H]1O[C@@](CO)(O[C@H]2O[C@H](CO)[C@@H](O)[C@H](O)[C@H]2O)[C@@H](O)[C@@H]1O [Sucrose, reference compound]
[2]; test compound at 4.0%
  % Inhibition of Adhesion: 40%

## ethyl sialyl lactose
[3]
  % Decrease In Redness: 40.6%
[3]; listed as lactose ethyl
  % Decrease In Redness: 40.6%

## CC(=O)N[C@H]1[C@H]([C@H](O)[C@H](O)CO)O[C@@](OC[C@H]2O[C@@H](O[C@H]3[C@H](O)[C@@H](O)[C@H](O)O[C@@H]3CO)[C@H](O)[C@@H](O)[C@H]2O)(C(=O)O)C[C@@H]1O [6'-Sialyl lactose, 6'-sialyl lactose]
[1]; [4]
  % Decrease In Redness: 57%
[1]
  preventing irritation caused by a topical irritant (in words): significant activity

## OC[C@H]1O[C@@H](O[C@H]2[C@H](O)[C@@H](O)C(O)O[C@@H]2CO)[C@H](O)[C@@H](O)[C@H]1O (some centres unmarked) [Lactose, reference compound]
[1]; [4]
  % Decrease In Redness: 45%
[1]
  preventing irritation caused by a topical irritant (in words): ineffective
